# Results from PubChem BioAssay (NCI).
#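 Protocol summary: plate cells (96-well), add compound at 5 concentrations, incubate 48 h, interpolate endpoints linearly. GI50: concentration for 50% inhibition of growth. TGI: total growth inhibition.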
# Experiments:
# Test in all cases: DTP human tumour cell line panel, 48 h
# [1] = system: COLO 205 colon
# [2] = system: SF-539 CNS
# [3] = system: OVCAR-4 ovarian
# [4] = system: A498 renal
# [5] = system: SK-OV-3 ovarian
# [6] = system: RPMI-8226 leukemia
# [7] = system: MOLT-4 leukemia
# [8] = system: SN12C renal
# [9] = system: BT-549 breast
# [10] = system: CCRF-CEM leukemia
# [11] = system: UACC-62 melanoma
# [12] = system: T-47D breast
# [13] = system: RXF 393 renal
# [14] = system: SF-268 CNS
# [15] = system: SR leukemia
# [16] = system: SK-MEL-2 melanoma
# [17] = system: ACHN renal
# [18] = system: NCI-H522 lung
# [19] = system: MDA-MB-231 breast
# [20] = system: MALME-3M melanoma
# [21] = system: TK-10 renal
# [22] = system: SF-295 CNS
# [23] = system: EKVX NSCLC
# [24] = system: CAKI-1 renal
# [25] = system: HCT-116 colon
# [26] = system: 786-0 renal
# [27] = system: OVCAR-8 ovarian
# [28] = system: HOP-62 NSCLC
# [29] = system: HOP-92 NSCLC
# [30] = system: NCI/ADR-RES ovarian
# [31] = system: UACC-257 melanoma
# [32] = system: HL-60(TB) leukemia
# [33] = system: SK-MEL-5 melanoma
# [34] = system: SNB-19 CNS
# [35] = system: OVCAR-3 ovarian
# [36] = system: HT29 colon
# [37] = system: UO-31 renal
# [38] = system: LOX IMVI melanoma
# [39] = system: K-562 leukemia
# [40] = system: SNB-75 CNS
# [41] = system: A549 NSCLC
# [42] = system: PC-3 prostate
# [43] = system: NCI-H460 lung
# [44] = system: KM12 colon
# [45] = system: HS 578T breast
# [46] = system: HCC-2998 colon
# [47] = system: SW-620 colon
# [48] = system: NCI-H23 lung
# [49] = system: NCI-H226 lung
# [50] = system: M14 melanoma
# [51] = system: U251 CNS
# [52] = system: MCF7 breast
# [53] = system: SK-MEL-28 melanoma
# [54] = system: MDA-MB-435
# [55] = system: DU-145 prostate
# [56] = system: OVCAR-5 ovarian
# [57] = system: HCT-15 colon
# [58] = system: IGROV1 ovarian
smiles,measurement,setting,value
CCOc1ccc2c(c1)C(=O)c1c-2n(CCCBr)c(=O)c2cc([N+](=O)[O-])ccc12,GI50,[1],41.3 µM
same,TGI,[1],> 100 µM
same,GI50,[2],5.57 µM
same,TGI,[2],40.9 µM
same,GI50,[3],> 100000 nM
same,TGI,[3],> 100 µM
same,GI50,[4],36 µM
same,TGI,[4],> 100000 nM
same,GI50,[5],17.6 µM
same,TGI,[5],> 100 µM
same,GI50,[6],30.7 µM
same,TGI,[6],> 100 µM
same,GI50,[7],4.18 µM
same,TGI,[7],> 100 µM
same,GI50,[8],11.9 µM
same,TGI,[8],> 100 µM
same,GI50,[9],28.8 µM
same,TGI,[9],> 100 µM
same,GI50,[10],3.74 µM
same,TGI,[10],> 100 µM
same,GI50,[11],5730 nM
same,TGI,[11],> 100000 nM
same,GI50,[12],550 nM
same,TGI,[12],9.12 µM
same,GI50,[13],37.9 µM
same,TGI,[13],> 100 µM
same,GI50,[14],5.1 µM
same,TGI,[14],> 100 µM
same,GI50,[15],0.554 µM
same,TGI,[15],> 100 µM
same,GI50,[16],> 100 µM
same,TGI,[16],> 100 µM
same,GI50,[17],3.76 µM
same,TGI,[17],69.7 µM
same,GI50,[18],5.74 µM
same,TGI,[18],72.8 µM
same,GI50,[19],> 100 µM
same,TGI,[19],> 100 µM
same,GI50,[20],40.7 µM
same,TGI,[20],> 100 µM
same,GI50,[21],> 100 µM
same,TGI,[21],> 100 µM
same,GI50,[22],12.3 µM
same,TGI,[22],> 100 µM
same,GI50,[23],86.1 µM
same,TGI,[23],> 100 µM
same,GI50,[24],8.15 µM
same,TGI,[24],> 100 µM
same,GI50,[25],5.98 µM
same,TGI,[25],> 100 µM
same,GI50,[26],13.6 µM
same,TGI,[26],> 100 µM
same,GI50,[27],4.8 µM
same,TGI,[27],> 100 µM
same,GI50,[28],5.81 µM
same,TGI,[28],> 100 µM
same,GI50,[29],37.1 µM
same,TGI,[29],> 100 µM
same,GI50,[30],9.06 µM
same,TGI,[30],> 100 µM
same,GI50,[31],40.9 µM
same,TGI,[31],98.3 µM
same,GI50,[32],64.5 µM
same,TGI,[32],> 100 µM
same,GI50,[33],8.74 µM
same,TGI,[33],25.7 µM
same,GI50,[34],4.75 µM
same,TGI,[34],> 100 µM
same,GI50,[35],23.2 µM
same,TGI,[35],> 100 µM
same,GI50,[36],> 100 µM
same,TGI,[36],> 100 µM
same,GI50,[37],2.9 µM
same,TGI,[37],13.6 µM
same,GI50,[38],5.38 µM
same,TGI,[38],> 100 µM
same,GI50,[39],50.9 µM
same,TGI,[39],> 100 µM
same,GI50,[40],33.9 µM
same,TGI,[40],> 100 µM
same,GI50,[41],29 µM
same,TGI,[41],> 100 µM
same,GI50,[42],> 100 µM
same,TGI,[42],> 100 µM
same,GI50,[43],1970 nM
same,TGI,[43],91.6 µM
same,GI50,[44],56 µM
same,TGI,[44],> 100 µM
same,GI50,[45],> 100 µM
same,TGI,[45],> 100 µM
same,GI50,[46],57.7 µM
same,TGI,[46],> 100 µM
same,GI50,[47],4.63 µM
same,TGI,[47],> 100 µM
same,GI50,[48],7.14 µM
same,TGI,[48],> 100 µM
same,GI50,[49],5640 nM
same,TGI,[49],> 100000 nM
same,GI50,[50],6.58 µM
same,TGI,[50],> 100 µM
same,GI50,[51],6.13 µM
same,TGI,[51],> 100 µM
same,GI50,[52],344 nM
same,TGI,[52],63.8 µM
same,GI50,[53],88.8 µM
same,TGI,[53],> 100 µM
same,GI50,[54],30.6 µM
same,TGI,[54],> 100 µM
same,GI50,[55],4.29 µM
same,TGI,[55],> 100 µM
same,GI50,[56],59.4 µM
same,TGI,[56],> 100000 nM
same,GI50,[57],36 µM
same,TGI,[57],> 100 µM
COc1cccc(CN(C)c2ccc(CO)c(Cl)c2)c1,GI50,[1],3.18 µM
same,TGI,[1],11.7 µM
same,GI50,[2],48 µM
same,TGI,[2],> 100 µM
same,GI50,[3],1190 nM
same,TGI,[3],29.4 µM
same,GI50,[4],0.0311 µM
same,TGI,[4],154 nM
same,GI50,[5],11.3 µM
same,TGI,[5],> 60.7 µM
same,GI50,[6],12.8 µM
same,TGI,[6],> 78.3 µM
same,GI50,[7],33.1 µM
same,TGI,[7],> 100 µM
same,GI50,[8],24.7 µM
same,TGI,[8],> 100 µM
same,GI50,[9],19.8 µM
same,TGI,[9],80 µM
same,GI50,[10],39.3 µM
same,TGI,[10],> 100 µM
same,GI50,[11],190 nM
same,TGI,[11],1630 nM
same,GI50,[12],298 nM
same,TGI,[12],2.86 µM
same,GI50,[13],11.2 µM
same,TGI,[13],> 62.2 µM
same,GI50,[14],44.5 µM
same,TGI,[14],> 100 µM
same,GI50,[15],41.8 µM
same,TGI,[15],> 100 µM
same,GI50,[16],7.78 µM
same,TGI,[16],42.5 µM
same,GI50,[17],42.1 µM
same,TGI,[17],> 100 µM
same,GI50,[18],22 µM
same,TGI,[18],> 74.3 µM
same,GI50,[19],31 µM
same,TGI,[19],> 100 µM
same,GI50,[20],25.9 µM
same,TGI,[20],> 89.7 µM
same,GI50,[22],3.71 µM
same,TGI,[22],> 66.2 µM
same,GI50,[23],24.8 µM
same,TGI,[23],97.9 µM
same,GI50,[24],2.82 µM
same,TGI,[24],> 59.3 µM
same,GI50,[25],0.243 µM
same,TGI,[25],14.1 µM
same,GI50,[26],13.9 µM
same,TGI,[26],> 67.6 µM
same,GI50,[27],20.7 µM
same,TGI,[27],> 96.5 µM
same,GI50,[28],5.33 µM
same,TGI,[28],> 87.7 µM
same,GI50,[29],6.97 µM
same,TGI,[29],56.9 µM
same,GI50,[30],19.1 µM
same,TGI,[30],67 µM
same,GI50,[31],0.216 µM
same,TGI,[31],0.679 µM
same,GI50,[32],26 µM
same,TGI,[32],> 87.1 µM
same,GI50,[33],7.5 µM
same,TGI,[33],21.4 µM
same,GI50,[34],35.2 µM
same,TGI,[34],> 100 µM
same,GI50,[35],2.31 µM
same,TGI,[35],10.6 µM
same,GI50,[36],5.03 µM
same,TGI,[36],> 100 µM
same,GI50,[37],14.5 µM
same,TGI,[37],> 83.7 µM
same,GI50,[38],34.7 µM
same,TGI,[38],> 100 µM
same,GI50,[39],7.56 µM
same,TGI,[39],> 100 µM
same,GI50,[40],22.2 µM
same,TGI,[40],98.4 µM
same,GI50,[41],4.09 µM
same,TGI,[41],40.1 µM
same,GI50,[42],30.6 µM
same,TGI,[42],> 100 µM
same,GI50,[43],970 nM
same,TGI,[43],21 µM
same,GI50,[44],29.8 µM
same,TGI,[44],> 100 µM
same,GI50,[45],43.6 µM
same,TGI,[45],> 100 µM
same,GI50,[46],16.9 µM
same,TGI,[46],74.8 µM
same,GI50,[47],4.34 µM
same,TGI,[47],> 100 µM
same,GI50,[48],18.6 µM
same,TGI,[48],> 100 µM
same,GI50,[49],58.8 nM
same,TGI,[49],202 nM
same,GI50,[50],25.2 µM
same,TGI,[50],> 100 µM
same,GI50,[51],3.32 µM
same,TGI,[51],> 64.1 µM
same,GI50,[52],504 nM
same,TGI,[52],> 43.7 µM
same,GI50,[58],216 nM
same,TGI,[58],2600 nM
same,GI50,[53],24.2 µM
same,TGI,[53],> 100 µM
same,GI50,[54],19.7 µM
same,TGI,[54],66.2 µM
same,GI50,[55],37.1 µM
same,TGI,[55],> 100 µM
same,GI50,[56],0.322 µM
same,TGI,[56],1910 nM
same,GI50,[57],24 µM
same,TGI,[57],> 100 µM
